Data published in PubChem BioAssay (NCI).
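Each compound was tested at five concentrations against cells in 96-well plates for 48 hours. The concentration for 50% growth inhibition is given as GI50. TGI denotes the concentration required for complete inhibition of growth.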

Key:
Assay in all cases: NCI-60 cell line screen, 48 h
786-0 renal = tested on: 786-0 renal
A498 renal = tested on: A498 renal
A549 NSCLC = tested on: A549 NSCLC
ACHN renal = tested on: ACHN renal
BT-549 breast = tested on: BT-549 breast
CAKI-1 renal = tested on: CAKI-1 renal
CCRF-CEM leukemia = tested on: CCRF-CEM leukemia
COLO 205 colon = tested on: COLO 205 colon
DU-145 prostate = tested on: DU-145 prostate
EKVX NSCLC = tested on: EKVX NSCLC
HCC-2998 colon = tested on: HCC-2998 colon
HCT-116 colon = tested on: HCT-116 colon
HCT-15 colon = tested on: HCT-15 colon
HL-60(TB) leukemia = tested on: HL-60(TB) leukemia
HOP-92 NSCLC = tested on: HOP-92 NSCLC
HS 578T breast = tested on: HS 578T breast
HT29 colon = tested on: HT29 colon
IGROV1 ovarian = tested on: IGROV1 ovarian
K-562 leukemia = tested on: K-562 leukemia
KM12 colon = tested on: KM12 colon
LOX IMVI melanoma = tested on: LOX IMVI melanoma
M14 melanoma = tested on: M14 melanoma
MALME-3M melanoma = tested on: MALME-3M melanoma
MCF7 breast = tested on: MCF7 breast
MDA-MB-231 breast = tested on: MDA-MB-231 breast
MDA-MB-435 = tested on: MDA-MB-435
MOLT-4 leukemia = tested on: MOLT-4 leukemia
NCI-H226 lung = tested on: NCI-H226 lung
NCI-H23 lung = tested on: NCI-H23 lung
NCI-H460 lung = tested on: NCI-H460 lung
NCI-H522 lung = tested on: NCI-H522 lung
NCI/ADR-RES ovarian = tested on: NCI/ADR-RES ovarian
OVCAR-3 ovarian = tested on: OVCAR-3 ovarian
OVCAR-4 ovarian = tested on: OVCAR-4 ovarian
OVCAR-5 ovarian = tested on: OVCAR-5 ovarian
OVCAR-8 ovarian = tested on: OVCAR-8 ovarian
PC-3 prostate = tested on: PC-3 prostate
RPMI-8226 leukemia = tested on: RPMI-8226 leukemia
RXF 393 renal = tested on: RXF 393 renal
SF-268 CNS = tested on: SF-268 CNS
SF-295 CNS = tested on: SF-295 CNS
SF-539 CNS = tested on: SF-539 CNS
SK-MEL-2 melanoma = tested on: SK-MEL-2 melanoma
SK-MEL-28 melanoma = tested on: SK-MEL-28 melanoma
SK-MEL-5 melanoma = tested on: SK-MEL-5 melanoma
SK-OV-3 ovarian = tested on: SK-OV-3 ovarian
SN12C renal = tested on: SN12C renal
SNB-19 CNS = tested on: SNB-19 CNS
SNB-75 CNS = tested on: SNB-75 CNS
SR leukemia = tested on: SR leukemia
SW-620 colon = tested on: SW-620 colon
T-47D breast = tested on: T-47D breast
TK-10 renal = tested on: TK-10 renal
U251 CNS = tested on: U251 CNS
UACC-257 melanoma = tested on: UACC-257 melanoma
UACC-62 melanoma = tested on: UACC-62 melanoma
UO-31 renal = tested on: UO-31 renal

`O=C1/C(=C/c2ccc(Br)cc2)COc2ccc(O)c(O)c21` gave a GI50 (786-0 renal) of 0.678 µM, a TGI (786-0 renal) of 2.57 µM and a GI50 (A498 renal) of 2.97 µM. The TGI (A498 renal) was 7.75 µM, the GI50 (A549 NSCLC) was 1.77 µM and the TGI (A549 NSCLC) was 6.77 µM. The GI50 (ACHN renal) was 0.828 µM, the TGI (ACHN renal) was 2.09 µM and the GI50 (BT-549 breast) was 1.2 µM. The TGI (BT-549 breast) was 3 µM, the GI50 (CAKI-1 renal) was 0.944 µM and the TGI (CAKI-1 renal) was 2.25 µM. The GI50 (CCRF-CEM leukemia) was 0.462 µM, the TGI (CCRF-CEM leukemia) was greater than 100 µM and the GI50 (COLO 205 colon) was 1.53 µM. The TGI (COLO 205 colon) was 3.18 µM, the GI50 (DU-145 prostate) was 1.31 µM and the TGI (DU-145 prostate) was 2.9 µM. The GI50 (EKVX NSCLC) was 1.45 µM, the TGI (EKVX NSCLC) was 3.14 µM and the GI50 (HCC-2998 colon) was 1.54 µM. It also gave a TGI (HCC-2998 colon) of 3.03 µM, a GI50 (HCT-116 colon) of 0.892 µM and a TGI (HCT-116 colon) of 2.4 µM. It also gave a GI50 (HCT-15 colon) of 0.302 µM, a TGI (HCT-15 colon) of 1.51 µM and a GI50 (HL-60(TB) leukemia) of 0.442 µM. It also gave a TGI (HL-60(TB) leukemia) of 3.28 µM, a GI50 (HOP-92 NSCLC) of 1.26 µM and a TGI (HOP-92 NSCLC) of 5.49 µM. It also gave a GI50 (HS 578T breast) of 1.54 µM, a TGI (HS 578T breast) of 6.77 µM and a GI50 (HT29 colon) of 2.3 µM. It also gave a TGI (HT29 colon) of 5.79 µM, a GI50 (IGROV1 ovarian) of 0.631 µM and a TGI (IGROV1 ovarian) of 2.16 µM. For the same molecule, the GI50 (K-562 leukemia) was 0.282 µM, the TGI (K-562 leukemia) was greater than 100 µM and the GI50 (KM12 colon) was 1.11 µM. For the same molecule, the TGI (KM12 colon) was 3.35 µM, the GI50 (LOX IMVI melanoma) was 0.261 µM and the TGI (LOX IMVI melanoma) was 0.807 µM. The GI50 (M14 melanoma) was 1.41 µM, the TGI (M14 melanoma) was 3.47 µM and the GI50 (MALME-3M melanoma) was 1.11 µM. For the same molecule, the TGI (MALME-3M melanoma) was 3.35 µM, the GI50 (MCF7 breast) was 0.353 µM and the TGI (MCF7 breast) was 1.67 µM. For the same molecule, the GI50 (MDA-MB-231 breast) was 0.682 µM, the TGI (MDA-MB-231 breast) was 2.27 µM and the GI50 (MDA-MB-435) was 0.427 µM. For the same molecule, the TGI (MDA-MB-435) was 1.59 µM, the GI50 (MOLT-4 leukemia) was 0.431 µM and the TGI (MOLT-4 leukemia) was greater than 100 µM. For the same molecule, the GI50 (NCI-H226 lung) was 2.01 µM, the TGI (NCI-H226 lung) was 5.52 µM and the GI50 (NCI-H23 lung) was 1.62 µM. The TGI (NCI-H23 lung) was 3.65 µM, the GI50 (NCI-H460 lung) was 1.68 µM and the TGI (NCI-H460 lung) was 4.06 µM. The GI50 (NCI-H522 lung) was 0.158 µM, the TGI (NCI-H522 lung) was 0.348 µM and the GI50 (NCI/ADR-RES ovarian) was 0.665 µM. For the same molecule, the TGI (NCI/ADR-RES ovarian) was greater than 25.8 µM, the GI50 (OVCAR-3 ovarian) was 0.493 µM and the TGI (OVCAR-3 ovarian) was 1.56 µM. The GI50 (OVCAR-4 ovarian) was 1.31 µM, the TGI (OVCAR-4 ovarian) was 2.59 µM and the GI50 (OVCAR-5 ovarian) was 1.5 µM. For the same molecule, the TGI (OVCAR-5 ovarian) was 3.04 µM, the GI50 (OVCAR-8 ovarian) was 0.675 µM and the GI50 (PC-3 prostate) was 0.599 µM. It also gave a TGI (PC-3 prostate) of 2.42 µM, a GI50 (RPMI-8226 leukemia) of 0.221 µM and a TGI (RPMI-8226 leukemia) of 1.02 µM. The GI50 (RXF 393 renal) was 1.1 µM, the TGI (RXF 393 renal) was 2.43 µM and the GI50 (SF-268 CNS) was 1.26 µM. For the same molecule, the TGI (SF-268 CNS) was 3.4 µM, the GI50 (SF-295 CNS) was 2.57 µM and the TGI (SF-295 CNS) was 6.83 µM. The GI50 (SF-539 CNS) was 0.436 µM, the TGI (SF-539 CNS) was 1.19 µM and the GI50 (SK-MEL-2 melanoma) was 1.69 µM. The TGI (SK-MEL-2 melanoma) was 4.53 µM, the GI50 (SK-MEL-28 melanoma) was 1.55 µM and the TGI (SK-MEL-28 melanoma) was 3.25 µM. For the same molecule, the GI50 (SK-MEL-5 melanoma) was 1.4 µM, the TGI (SK-MEL-5 melanoma) was 2.84 µM and the GI50 (SK-OV-3 ovarian) was 2.63 µM. For the same molecule, the TGI (SK-OV-3 ovarian) was 11.6 µM, the GI50 (SN12C renal) was 0.617 µM and the TGI (SN12C renal) was 2.32 µM. For the same molecule, the GI50 (SNB-19 CNS) was 1.38 µM, the TGI (SNB-19 CNS) was 3.05 µM and the GI50 (SNB-75 CNS) was 1.23 µM. The TGI (SNB-75 CNS) was 3.01 µM, the GI50 (SR leukemia) was 0.452 µM and the TGI (SR leukemia) was greater than 100 µM. The GI50 (SW-620 colon) was 0.671 µM, the TGI (SW-620 colon) was 2.22 µM and the GI50 (T-47D breast) was 0.906 µM. For the same molecule, the TGI (T-47D breast) was 3.16 µM, the GI50 (TK-10 renal) was 1.7 µM and the TGI (TK-10 renal) was 3.2 µM. The GI50 (U251 CNS) was 0.588 µM, the TGI (U251 CNS) was 2.04 µM and the GI50 (UACC-257 melanoma) was 1.71 µM. The TGI (UACC-257 melanoma) was 6.78 µM, the GI50 (UACC-62 melanoma) was 1.07 µM and the TGI (UACC-62 melanoma) was 2.4 µM. For the same molecule, the GI50 (UO-31 renal) was 0.307 µM and the TGI (UO-31 renal) was 1.07 µM.
